Consider 45 compounds from US8592422B2, “Bicyclic triazole and pyrazole lactams as allosteric modulators of mGluR5 receptors” (Vanderbilt University, priority 2010, dated 2013).

The target in one data set is T1, human mGluR5a receptor (Homo sapiens, UniProt P41594).
T1 construct: cDNA subcloned into pcDNA3.1(-)
As to the kind of experiment: Cell-based functional Ca2+ mobilization assay (FDSS), potentiation of glutamate EC20 response. The following applies: for EC50: HEK cells transfected with human mGluR5 (H10H or H12H), in presence of EC20 glutamate. The procedure, abridged:
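HEK293A cells stably expressing human mGluR5a (H10H or H12H clones), plated overnight in glutamate-glutamine-free medium, loaded with Ca2+-sensitive dye (e.g. Fluo-4) and read on FDSS.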

The mark [1] stands for this setting: maximum % effect in concentration-response curve, as percent of response to maximally effective glutamate.

Values joined by “and” are separate entries in the source; they are usually repeats but may differ in a detail not shown here. Identical values can stand only once. Like-named read-outs stand apart in the source and are kept apart here.

T1 sequence (P41594 21-1180 isoform P41594-2 limits assumed): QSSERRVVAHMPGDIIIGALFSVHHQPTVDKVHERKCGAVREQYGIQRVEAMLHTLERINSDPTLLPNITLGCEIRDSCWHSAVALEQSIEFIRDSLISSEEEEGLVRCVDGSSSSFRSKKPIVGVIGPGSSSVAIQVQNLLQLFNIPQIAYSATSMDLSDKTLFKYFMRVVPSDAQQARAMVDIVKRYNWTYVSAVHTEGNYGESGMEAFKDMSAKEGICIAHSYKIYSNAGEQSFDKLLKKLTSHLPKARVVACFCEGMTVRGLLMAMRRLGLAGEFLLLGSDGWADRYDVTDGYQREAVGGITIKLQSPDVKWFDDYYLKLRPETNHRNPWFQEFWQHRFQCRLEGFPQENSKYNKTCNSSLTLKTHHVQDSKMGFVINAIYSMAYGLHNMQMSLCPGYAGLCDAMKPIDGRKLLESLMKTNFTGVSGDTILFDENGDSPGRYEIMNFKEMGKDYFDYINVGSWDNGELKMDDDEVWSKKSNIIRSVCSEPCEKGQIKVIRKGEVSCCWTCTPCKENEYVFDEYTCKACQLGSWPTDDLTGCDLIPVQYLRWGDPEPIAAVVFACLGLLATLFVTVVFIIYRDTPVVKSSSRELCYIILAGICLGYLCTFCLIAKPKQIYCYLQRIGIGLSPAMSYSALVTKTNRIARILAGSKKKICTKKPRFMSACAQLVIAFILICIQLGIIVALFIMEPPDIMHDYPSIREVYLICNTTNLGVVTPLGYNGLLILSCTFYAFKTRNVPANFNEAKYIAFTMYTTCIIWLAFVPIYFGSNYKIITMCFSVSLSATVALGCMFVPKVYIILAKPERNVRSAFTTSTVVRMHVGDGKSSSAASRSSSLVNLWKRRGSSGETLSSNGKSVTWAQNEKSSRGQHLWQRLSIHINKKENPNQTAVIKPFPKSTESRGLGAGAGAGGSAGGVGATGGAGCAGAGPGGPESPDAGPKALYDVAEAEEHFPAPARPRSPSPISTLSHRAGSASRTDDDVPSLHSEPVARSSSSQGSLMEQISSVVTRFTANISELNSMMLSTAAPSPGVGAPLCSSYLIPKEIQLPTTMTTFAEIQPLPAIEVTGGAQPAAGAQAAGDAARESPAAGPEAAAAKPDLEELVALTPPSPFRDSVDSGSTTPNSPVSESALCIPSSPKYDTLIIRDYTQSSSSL

`COc1ncccc1N1C(=O)c2cc(COc3ccccc3)nn2C[C@H]1C` [Example 148]: the melting point (in general, the temperature of the solid-liquid transition) turned out to be 145.5 °C. The EC50 at human mGluR5a receptor (read-out: EC50) turned out to be 174 nM. For the same compound, the Emax – broadly, the greatest response seen or fitted, relative to the assay's reference – on human mGluR5a receptor (setting [1]) was determined as 71%.
The corresponding values for `COc1nccnc1N1C(=O)c2cc(COc3ccccc3)nn2C[C@H]1C` [Example 149] are 104.9 °C, 794 nM and 64%.
On to `Cc1ccccc1N1C(=O)c2cc(COc3ccccc3)nn2C[C@H]1C` [Example 154], for which the melting point turned out to be 171.5 °C. Further, the EC50 on human mGluR5a receptor (read-out: EC50) was determined as 29 nM. The EC50 on human mGluR5a receptor (read-out: pEC50 (converted)) is 29.5 nM. Besides, at human mGluR5a receptor (setting [1]), the Emax was 72%.
Turning to `Cc1cc(N2C(=O)c3cc(COc4ccccc4)nn3C[C@H]2C)ncc1F` [Example 155], the melting point worked out at 99.3 °C. Besides, on human mGluR5a receptor (read-out: EC50), the EC50 is 130 nM. For the same compound, the maximal response (Emax) at human mGluR5a receptor (setting [1]) came out at 62%.
Taken in the same sequence, the figures for `COc1nc(N2C(=O)c3cc(COc4ccccc4)nn3C[C@H]2C)ncc1C` [Example 156] were greater than 300 °C, 540 nM and 79%.
As for `O=C1c2cc(COc3ccncc3)nn2CCN1c1ccc(F)cc1` [Example 160], the melting point came out at 149.5 °C. Further, the EC50 at human mGluR5a receptor (read-out: EC50) came to 631 nM. Besides, the Emax at human mGluR5a receptor (setting [1]) was determined as 68%.
As to `Cc1cccc(OCc2cc3n(n2)CCN(c2ccc(F)cc2)C3=O)c1` [Example 166], the melting point is 182.5 °C. Also, on human mGluR5a receptor (read-out: EC50), the EC50 stood at 95 nM. For the same compound, the Emax at human mGluR5a receptor (setting [1]) is 64%.
Consider `O=C1c2cc(COc3cncc(F)c3)nn2CCN1CC1CC1` [Example 171], for which the melting point was found to be 110.7 °C. Besides, the EC50 at human mGluR5a receptor (read-out: EC50) was greater than 10000 nM. Further, at human mGluR5a receptor (setting [1]), the maximal response (Emax) came out at 51%.
Turning to `Cc1cc(OCc2cc3n(n2)CCN(c2ccc(F)cc2)C3=O)ccn1` [Example 174], the melting point was greater than 300 °C. Besides, the EC50 at human mGluR5a receptor (read-out: EC50) came to 1260 nM. At human mGluR5a receptor (setting [1]), the Emax turned out to be 34%.
Compound `O=C1c2cc(COc3cccc(F)c3)nn2CCN1c1ccc(F)cn1` [Example 178] displayed a melting point greater than 300 °C. On human mGluR5a receptor (read-out: EC50), the EC50 is 115 nM. Further, the maximum response (Emax) on human mGluR5a receptor (setting [1]) was found to be 61%.
Take `O=C1c2cc(COc3ccc(F)cc3)nn2CCN1c1ccc(F)cn1` [Example 179]: the melting point was greater than 300 °C. Further, on human mGluR5a receptor (read-out: EC50), the EC50 was determined as 151 nM. For the same compound, on human mGluR5a receptor (setting [1]), the Emax was 60%.
`O=C1c2cc(COc3ccc(F)cn3)nn2CCN1c1ccc(F)cc1` [Example 181] returned a melting point of 239.4 °C. The EC50 on human mGluR5a receptor (read-out: EC50) was greater than 10000 nM. On human mGluR5a receptor (setting [1]), the Emax came to 52%.
The compound `Cc1ccc(OCc2cc3n(n2)CCN(c2ccc(F)cc2)C3=O)nc1` [Example 183] yielded a melting point of 236.2 °C. In addition, the EC50 on human mGluR5a receptor (read-out: EC50) was greater than 30200 nM. Further, the Emax at human mGluR5a receptor (setting [1]) was determined as 15%.
`Cc1cccnc1OCc1cc2n(n1)CCN(c1ccc(F)cc1)C2=O` [Example 185] gave a melting point of 270.1 °C. Moreover, the EC50 at human mGluR5a receptor (read-out: EC50) is greater than 10000 nM. Moreover, the maximal response (Emax) at human mGluR5a receptor (setting [1]) worked out at 51%.
Taken in the same sequence, the figures for `O=C1c2cc(COc3ncccc3F)nn2CCN1c1ccc(F)cc1` [Example 187] were 165 °C, 2190 nM and 60%.
Taken in the same sequence, the figures for `Cc1cnccc1OCc1cc2n(n1)CCN(c1ccc(F)cc1)C2=O` [Example 189] were 168.3 °C, 4900 nM and 45%.
`O=C1c2cc(COc3ccccc3F)nn2CCN1c1ccc(F)cc1` [Example 190] yielded a melting point of 183.3 °C. Besides, the EC50 at human mGluR5a receptor (EC50 (nM)) is 145 nM. In addition, the maximum response (Emax) at human mGluR5a receptor (setting [1]) is 66%.
Consider `Cc1ccccc1OCc1cc2n(n1)CCN(c1ccc(F)cc1)C2=O` [Example 191], for which the melting point turned out to be 132.8 °C. Moreover, the EC50 at human mGluR5a receptor (read-out: EC50) came to 427 nM. Moreover, on human mGluR5a receptor (setting [1]), the Emax came out at 57%.
Taken in the same sequence, the figures for `N#Cc1ccnc(OCc2cc3n(n2)CCN(c2ccc(F)cc2)C3=O)c1` [Example 193] were 202.6 °C, 437 nM and 53%.
`O=C1c2cc(COc3ncccn3)nn2CCN1c1ccc(F)cc1` [Example 194]: the melting point turned out to be 179.5 °C. Besides, the EC50 on human mGluR5a receptor (read-out: EC50) is greater than 10000 nM. In addition, the Emax at human mGluR5a receptor (setting [1]) came out at 50%.
The corresponding values for `COc1ccnc(OCc2cc3n(n2)CCN(c2ccc(F)cc2)C3=O)c1` [Example 195] are greater than 300 °C, greater than 10000 nM and 40%.
In the case of `O=C1c2cc(COc3cnccn3)nn2CCN1c1ccc(F)cc1` [Example 197], the melting point is 144.8 °C. The EC50 on human mGluR5a receptor (read-out: EC50) was greater than 10000 nM. Also, on human mGluR5a receptor (setting [1]), the Emax was found to be 58%.
Taken in the same sequence, the figures for `Cc1cncc(OCc2cc3n(n2)CCN(c2ccc(F)cc2)C3=O)n1` [Example 200] were 156.6 °C, greater than 30200 nM and 21%.
The corresponding values for `COc1cc(N2CCn3nc(COc4ccccn4)cc3C2=O)ccc1F` [Example 204] are 143.9 °C, 407 nM and 69%.
`Cc1cccc(N2CCn3nc(COc4ccccn4)cc3C2=O)n1` [Example 206]: the melting point was 109.8 °C. The EC50 on human mGluR5a receptor (read-out: EC50) is 1510 nM. Moreover, the maximal effect (Emax) on human mGluR5a receptor (setting [1]) was 67%.
In the case of `Cc1ccc(N2CCn3nc(COc4ccccn4)cc3C2=O)cc1` [Example 218], the melting point was greater than 300 °C. The EC50 at human mGluR5a receptor (read-out: EC50) came to 470 nM. Moreover, the maximum response (Emax) on human mGluR5a receptor (setting [1]) amounted to 69%.
With `COc1cccc(N2CCn3nc(COc4ccc(F)cc4)cc3C2=O)c1` [Example 220], the melting point was determined as 130.4 °C. For the same compound, on human mGluR5a receptor (read-out: EC50), the EC50 stood at 350 nM. On human mGluR5a receptor (read-out: pEC50 (converted)), the EC50 was 355 nM. For the same compound, at human mGluR5a receptor (setting [1]), the Emax amounted to 63%.
Consider `COc1ccccc1N1CCn2nc(COc3ccc(F)cc3)cc2C1=O` [Example 221], for which the melting point turned out to be 117.3 °C. Moreover, on human mGluR5a receptor (read-out: EC50), the EC50 stood at 190 nM. Besides, the Emax at human mGluR5a receptor (setting [1]) was determined as 66%.
With `Cc1ccccc1N1CCn2nc(COc3ccc(F)cc3)cc2C1=O` [Example 223], the melting point was determined as 148.2 °C. For the same compound, on human mGluR5a receptor (read-out: EC50), the EC50 stood at 98 nM. Also, at human mGluR5a receptor (read-out: pEC50 (converted)), the EC50 was 100 nM. Moreover, on human mGluR5a receptor (setting [1]), the maximum response (Emax) was determined as 63%.
`COc1ncccc1N1CCn2nc(COc3ccc(F)cc3)cc2C1=O` [Example 229] registered a melting point of 267.4 °C. Further, the EC50 on human mGluR5a receptor (read-out: EC50) came to 380 nM. Moreover, the Emax at human mGluR5a receptor (setting [1]) worked out at 66%.
The corresponding values for `N#Cc1cccc(OCc2cc3n(n2)CCN(c2ccc(F)cn2)C3=O)c1` [Example 233] are 181.3 °C, 525 nM and 54%.
The compound `CC1CN(c2ccc(F)cc2)C(=O)c2cc(COc3cccc(C#N)c3)nn21` (centres unmarked) [Example 241] showed a melting point of 110.2 °C. Moreover, at human mGluR5a receptor (read-out: EC50), the EC50 was greater than 30200 nM. On human mGluR5a receptor (setting [1]), the maximal effect (Emax) came out at 21%.
The corresponding values for `Cc1cccc(OCc2cc3n(n2)C(C)CN(c2ccc(F)cc2)C3=O)c1` (centres unmarked) [Example 242] are 70.2 °C, greater than 30200 nM and 21%.
`CNc1nc(N2CCn3nc(COc4ccccc4)cc3C2=O)ncc1F` [Example 279] displayed a melting point of 176.6 °C. The EC50 at human mGluR5a receptor (read-out: EC50) stood at 224 nM. The Emax at human mGluR5a receptor (setting [1]) was 69%.
Taken in the same sequence, the figures for `CN(C)c1cncc(N2CCn3nc(COc4ccccc4)cc3C2=O)n1` [Example 280] were 215.1 °C, 355 nM and 70%.
For `CN(C)c1ccnc(N2CCn3nc(COc4ccccc4)cc3C2=O)c1` [Example 282], the melting point was 190.2 °C. The EC50 on human mGluR5a receptor (read-out: EC50) was determined as 1100 nM. Besides, the Emax at human mGluR5a receptor (setting [1]) amounted to 64%.
Compound `CN(C)c1cccc(N2CCn3nc(COc4ccccc4)cc3C2=O)n1` [Example 286] gave a melting point of 143.7 °C. Moreover, the EC50 at human mGluR5a receptor (read-out: EC50) turned out to be 30 nM. For the same compound, the EC50 on human mGluR5a receptor (read-out: pEC50 (converted)) is 36.3 nM and 29.5 nM. Further, at human mGluR5a receptor (setting [1]), the Emax is 76% and the “Emax (%)” value stood at 69%.
Compound `CN(C)c1ccc(N2CCn3nc(COc4ccccc4)cc3C2=O)nc1` [Example 287] registered a melting point of 164.8 °C. Moreover, the EC50 at human mGluR5a receptor (read-out: EC50) is 603 nM. Besides, on human mGluR5a receptor (setting [1]), the maximum response (Emax) turned out to be 67%.
On to `Cc1ccc(N(C)C)nc1N1CCn2nc(COc3ccccc3)cc2C1=O` [Example 291], for which the melting point came out at 117.9 °C. On human mGluR5a receptor (read-out: EC50), the EC50 was determined as 54 nM. In addition, the Emax at human mGluR5a receptor (setting [1]) was 63%.
`Cc1cc(F)cc(N2CCn3nc(COc4ccccc4)cc3C2=O)c1` [Example 297] registered a melting point of 116.3 °C. Also, on human mGluR5a receptor (read-out: EC50), the EC50 is 76 nM. On human mGluR5a receptor (setting [1]), the Emax amounted to 71%.
Taken in the same sequence, the figures for `COc1cc(F)cc(N2CCn3nc(COc4ccccc4)cc3C2=O)c1` [Example 299] were 127.8 °C, 110 nM and 64%.
In turn, `O=C1c2cc(COc3ccccc3)nn2CCN1c1nccc(N2CCCC2)n1` [Example 309] gave a melting point of 143.2 °C. Further, the EC50 on human mGluR5a receptor (read-out: EC50) is 3550 nM. In addition, the Emax at human mGluR5a receptor (setting [1]) came to 56%.
In turn, `CN(C)c1cccc(OCc2cc3n(n2)CCN(c2ccc(F)cc2)C3=O)n1` [Example 310] had a melting point of 153.8 °C. Besides, the EC50 on human mGluR5a receptor (read-out: EC50) was greater than 30200 nM. Also, the Emax at human mGluR5a receptor (setting [1]) was 26%.
Compound `CN(C)c1ccnc(OCc2cc3n(n2)CCN(c2ccc(F)cc2)C3=O)c1` [Example 312] returned a melting point greater than 300 °C. The EC50 at human mGluR5a receptor (read-out: EC50) is greater than 30200 nM. Besides, the Emax on human mGluR5a receptor (setting [1]) came out at 25%.
On to `CN(C)c1cccc(N2CCn3nc(COc4cccc(F)c4)cc3C2=O)n1` [Example 316], for which the melting point amounted to 121.2 °C. Further, the EC50 on human mGluR5a receptor (read-out: pEC50 (converted)) was 40.7 nM. Also, the maximal effect (Emax) on human mGluR5a receptor (setting [1]) came out at 74%.
